No end group written: not given here.
What was measured:
[1] = tested on: S. globosa; experiment: Inhibition zone test (paper disk); assay type: cell-based, Sporothrix globosa; conditions: 6 µL on 5 mm paper disk, 37°C, 72 h, repeated three times, 5.00 = disk diameter
Protocol: S. globosa was collected from clinical patients diagnosed with cutaneous sporotrichosis at our hospital. All strains were identified as S. globosa using mycelial-to-yeast phase conversion culture and molecular identification methods. All isolates were grown on Sabouraud’s dextrose agar. After 7 days of culture, the fungal colonies were transferred to brainheart infusion broth and incubated in a rotary shaker (150 rpm/min) at 37°C for another 7 days. S. globosa was centrifuged and resuspended in PBS and diluted to 1.0 × 10^8 cfu/ml.
The antifungal activity of ToAP2A, ToAP2C, and ToAP2D against S. globosa was analyzed using the inhibition zone test. S. globosa was collected and diluted to 1.0 × 10^8 cfu/ml with a hemocytometer. We then evenly inoculated on brainheart infusion broth agar plates with 50 µL aliquots of the dilution. Paper disks with 5 mm diameter were pasted on the surface of the solid culture medium after high-pressure sterilization. ToAP2A, ToAP2C, and ToAP2D (4/2/1 mg/ml) and the control sample (physiological saline with a concentration of 0.9%) were dripped onto the filter paper with 6 µL, respectively, and cultured in 37°C for 72 h to observe whether there is a zone of inhibition. The diameter of the inhibition zone was measured and recorded with a vernier caliper. The above steps were repeated three times to calculate the average value and standard deviation of the inhibition zone diameter of each sample.

[2] = Acute toxicity, HE staining of major organs; assay type: in vivo; conditions: BALB/c mice, 60 mg/kg tail vein, organs after 24 h, n = 5
Protocol: To examine their toxicity, an in vivo animal study was performed. The 10 healthy BALB/c mice were randomly divided into ToAP2D group (n = 5) and the control group (n = 5). The mice in the ToAP2D group were injected with ToAP2D through the tail vein at a dose of 60 mg/kg, and the control group mice were injected with the same volume of normal saline. After 24 h, the major organs (e.g., brain, heart, liver, and kidney) of the mice were excised and fixed in 10% buffered formalin for 1 day. The tissues were then embedded in paraffin and sectioned for hematoxylin and eosin (HE) staining.

[3] = Serum stability by inhibition zone test; assay type: in vitro ADME; conditions: human serum diluted 1:1 with 0.9% normal saline, ToAP2D 4 mg/ml, 10 h at 37°C, read-out inhibition zone after 24 h
Protocol: The stability of ToAP2D in human serum was analyzed using the inhibition zone test. 5 ml of healthy human blood (from the physical examination center of our hospital) was extracted using a sterile syringe, stored at room temperature for 1 h, and then stored at 4°C overnight. After 24 h, the blood was centrifuged at 1,000 rpm/min for 10 min, and 50 µL of serum in the supernatant was gently sucked out with a pipette gun. The serum was diluted with 50 µL of 0.9% normal saline, and then, the antimicrobial peptide ToAP2D was dissolved in the diluted serum.
To determine the stability of ToAP2D in human serum, ToAP2D (final concentration 4 mg/ml) was mixed with the diluted serum for 0, 0.5, 1, 2, 4, 6, 8, and 10 h at 37°C, respectively. In brief, S. globosa was inoculated on brainheart infusion broth agar plates, 5.0 mm paper disks were placed on top, and 6 µL aliquots of the serumpeptide mixture were added to the paper disks at each incubation time point. After 24 h of incubation, the inhibitory zones against S. globosa were measured and recorded.

[4] = tested on: S. globosa; experiment: Minimal inhibitory concentration, microdilution assay; assay type: cell-based, Sporothrix globosa; conditions: brainheart infusion broth, 1 × 10^8 cfu/ml, 37°C, 7 days, at least three experiments
Protocol: The minimal inhibitory concentration (MIC) of ToAP2D against S. globosa was determined using the microdilution assay. In brief, twofold serial dilutions of ToAP2D were prepared in 96-well polystyrene microplates to a final volume of 100 µL. Final concentrations of ToAP2D ranged from 5 mg/ml to 0.62 μg/ml. In each plate, wells were included without peptide as control. Then, 100 µL of the liquid medium (brainheart infusion broth) was added to each well with a final concentration of 1 × 10^8 cfu/ml for S. globosa. The plates were incubated at 37°C for 7 days. In addition, 20 µL of culture from each well was inoculated on the brainheart solid medium and cultured in a constant temperature incubator at 37°C for 7 days to observe the growth of colonies. […] The experiments were performed at least three times on separate dates.

[5] = ref Guilhelmelli et al., 2016; cited from earlier work
Text: (§1) As the biological characteristics of S. globosa are very similar to C. albicans, we then use ToAP2structure as a template, through reasonable molecular design and modification, to study the inhibitory e ...

[6] = tested on: Candida albicans; conditions: ref Guilhelmelli et al., 2016; cited from earlier work
Text: as §1

[7] = tested on: S. globosa; experiment: S. globosa footpad infection in mice, skin lesion area; assay type: in vivo, BALB/c mice; conditions: itraconazole gavage 60 mg/kg daily from Day 10, mean ± SD, n = 6
Protocol: The animal protocol was approved by the Institutional Ethics Committee for Animal Use in Research, and our animal care followed Animal Care guidelines of the Jilin University. Mice were randomly divided into study group (n = 51) and the healthy control (HC) group (n = 6). Mice in the study group were injected with 0.05 ml S. globosa suspension (1 × 10^8 cfu/ml) on their footpads after alcohol cotton ball sterilization. The condition of the skin was monitored daily. […] After that, CO2 lattice laser was used to promote ToAP2D absorption, and the mice of the study group were further divided into infection group (n = 12), laser group (n = 12), laser + ToAP2D group (n = 12), and itraconazole group (n = 12), and the antifungal treatments were given subsequently.
In the laser group, the injection feet were subjected to CO2 lattice laser 10,600 nm irradiation at room temperature with an irradiation energy density of 120 mJ/mm^2. The laser scanning area was 15 mm × 15 mm with a lattice density of 0.3 mm and 25.0% coverage rate. The laser treatment was administered every […] on Day 10, 14, 18, and 22. In the laser + ToAP2D group, mice were subjected to CO2 lattice laser irradiation with the same parameters in the laser group to assist the absorption of ToAP2D. Almost immediately after laser irradiation, the antibacterial peptide ToAP2D (4 mg/ml, diluted with 0.9% normal saline) was repeatedly rolled onto the laser-irradiated part of the footpad, until it was completely absorbed every day. In the itraconazole group, mice were gavaged with itraconazole at a dose of 60 mg/kg daily. The size of the footpads of mice was measured every 3 days and analyzed using Photoshop. On Day 18 and 26, six mice in each group were sacrificed, and their feet tissues were collected for further skin histology and immunohistochemistry studies.

For GDKLIPGVMKLFRKK [ToAP2D], the “Inhibition zone (mm) mean ± standard deviation (SD)” value ([1]; 1 mg/ml) was 5.00 ± 0.00 mm, the “Inhibition zone (mm) mean ± standard deviation (SD)” value ([1]; 2 mg/ml) was 6.86 ± 0.25 mm and the “Inhibition zone (mm) mean ± standard deviation (SD)” value ([1]; 4 mg/ml) was 11.56 ± 0.36 mm. For the same compound, the “acute toxicity (HE staining of main organs)” value [2] was “no acute toxicity”, the “antifungal activity against S. globosa after incubation in serum, compared to the original drug” value [3] was over 90% and the “minimal inhibitory concentration (MIC)” value [4] was 156.25 µg/mL.

In the case of FFGTLFKLGSKLIPGVMKLFSKKKER [ToAP2], the cytotoxic activity [5] is given as “low cytotoxic”, the hemolytic activity [5] is given as “low hemolytic” and the “growth of Candida albicans” value [6] is given as “could inhibit the growth”.

With GSKLIPGVMKLFSKK [ToAP2A] the “Inhibition zone (mm) mean ± standard deviation (SD)” value ([1]; 1 mg/ml) was 5.00 ± 0.00 mm, the “Inhibition zone (mm) mean ± standard deviation (SD)” value ([1]; 2 mg/ml) was 6.59 ± 0.34 mm and the “Inhibition zone (mm) mean ± standard deviation (SD)” value ([1]; 4 mg/ml) was 9.23 ± 0.34 mm.

In the case of CCC(C)n1ncn(-c2ccc(N3CCN(c4ccc(OCC5COC(Cn6cncn6)(c6ccc(Cl)cc6Cl)O5)cc4)CC3)cc2)c1=O (stereo not shown) [Itraconazole, itraconazole], the “Skin lesion area (mm^2)” value ([7]; Day14) is reported as 27.82 ± 2.84 ^** mm^2, the “Skin lesion area (mm^2)” value ([7]; Day18) is reported as 21.47 ± 0.92 ^*** mm^2 and the “Skin lesion area (mm^2)” value ([7]; Day22) is reported as 14.94 ± 2.93 ^** mm^2. For the same compound, the “Skin lesion area (mm^2)” value ([7]; Day26) was 11.81 ± 0.85 mm^2.

With GAKLIPGVMKLFRKK [ToAP2C] the “Inhibition zone (mm) mean ± standard deviation (SD)” value ([1]; 1 mg/ml) was 5.00 ± 0.00 mm, the “Inhibition zone (mm) mean ± standard deviation (SD)” value ([1]; 2 mg/ml) was 6.37 ± 0.27 mm and the “Inhibition zone (mm) mean ± standard deviation (SD)” value ([1]; 4 mg/ml) was 8.12 ± 0.33 mm.

Reference: PMC8566951, “Antifungal Activity of ToAP2D Peptide Against Sporothrix globosa” (Frontiers in Bioengineering and Biotechnology, 2021)
